Test results from US7390642B2, “Salutaridinol 7-O-acetyltransferase and derivatives thereof” (priority 2001, dated 2008).
Read-outs that look alike come from different tables or passages of the source.

Columns and labels:
[1] = target: T1, salutaridinol 7-O-acetyltransferase (Papaver somniferum, UniProt Q94FT4)
[2] = target: T1, salutaridinol 7-O-acetyltransferase; test: Inhibition of enzyme activity by covalent modification with diethylpyrocarbonate; assay type: biochemical, P. somniferum; set-up: The full-length cDNA generated by RT-PCR was ligated into pFastBac HTa; His tag (N); made in house; host or cells: Spodoptera frugiperda Sf9 cells (baculovirus, pFastBac HTa); purified from culture medium
From the text: Sequence Analysis of pSalAT: Translation of the complete nucleotide sequence of salAT yielded a polypeptide of 474 amino acids containing no apparent signal peptide. This is consistent with the cytosolic localization of the enzyme activity (6). The enzyme activity is also operationally found associated with the cytosolic fraction of exuded latex. The salAT amino acid sequence contains residues conserved in other plant acetyltransferases as indicated by the black boxes in FIG. 2 (SEQ. IDs No.7 to 12). The longest contiguous region of conserved amino acids are the five residues DFGWG near the carboxy terminus that were used for primer design and are indicated by an arrow. Conserved histidine and aspartate residues (HXXXD; denoted by # in FIG. 2) thought to be involved in catalysis as characterized by x-ray crystallography for the bacterial enzymes chloramphenicol acetyltransferase and dihydrolipoamide acetyltransferase are also present in salutaridinol 7-O-acetyltransferase (23,24).

[3] = system: CC(=O)SCCNC(=O)CCNC(=O)[C@H](O)C(C)(C)COP(=O)(O)OP(=O)(O)OC[C@H]1O[C@@H](n2cnc3c(N)ncnc32)[C@H](O)[C@@H]1OP(=O)(O)O; test: purified protein, by the assay type
[4] = system: COC1=C[C@]23CCN(C)[C@H](Cc4ccc(OC)c(O)c42)C3=C[C@@H]1O; test: purified protein, by the assay type; details: other: fixed concentration of acetyl CoA of 30 mm; recombinant enzyme
[5] = standard assay conditions, acetylation of salutaridinol

## COC1=C[C@]23CCN(C)[C@H](Cc4ccc(OC)c(O)c42)C3=C[C@@H]1O [7(R)-salutaridinol]
[1]; recombinant enzyme, acetyl CoA
  acetylation at C-7 by the recombinant enzyme (substrate acceptance): not

## CCOC(=O)OC(=O)OCC [DEPC, diethylpyrocarbonate]
[2]
  effect of carbethoxylation of histidine residues on enzyme activity: loss of enzyme activity
[2]; 3 mM DEPC
  inhibition at 3000 µM: 50%
[2]; 5 mM DEPC
  inhibition at 5000 µM: 92%
[2]; 5 mM DEPC after preincubation of the enzyme with 30 mM acetyl CoA
  inactivation of enzyme: 46%

## [3H]C1(O)C=C2C3Cc4ccc(OC)c(O)c4C2(C=C1OC)CCN3C (centres unmarked) [[7-^3H]salutaridinol]
[1]; radioassay of pure, recombinant enzyme
  conversion into a product that co-migrated during TLC with authentic thebaine standard: 100%

## CC[C@]12C=CCN3CC[C@@]4(c5ccc(OC)cc5N(C)[C@H]4[C@@](O)(C(=O)OC)[C@@H]1O)[C@@H]32 [deacetylvindoline]
[1]; recombinant enzyme, acetyl CoA
  acetylation at C-7 by the recombinant enzyme (substrate acceptance): not

## CN1CC[C@]23c4c5ccc(O)c4O[C@H]2[C@@H](O)C=C[C@H]3[C@H]1C5 [morphine]
[1]
  acetylation at C-7 by the recombinant enzyme (substrate acceptance): not

## COC1=C[C@]23CCN(C)[C@H](Cc4cc5c(cc42)OCO5)C3=C[C@@H]1O [nudaurine]
[1]; nudaurine as substrate
  Vmax (nudaurine): 19 pmol/s
[1]; read-out: apparent Km nudaurine, at 30 mM acetyl CoA
  Km: 23 µM
[1]; recombinant enzyme, acetyl CoA
  acetylation at C-7 by the recombinant enzyme (substrate acceptance): acetylated

## COC1=C[C@]23CCN(C)[C@H](Cc4ccc(OC)c(O)c42)C3=CC1=O [salutaridine]
[1]; recombinant enzyme, acetyl CoA
  acetylation at C-7 by the recombinant enzyme (substrate acceptance): not

## COC1=C[C@]23CCN(C)[C@H](Cc4ccc(OC)c(O)c42)C3=C[C@@H]1O [salutaridinol, 7(S)-salutaridinol]
[1]; preference of salutaridinol over nudaurine, factor
  ratio kcat/Km (salutaridinol):kcat/Km(nudaurine): 3.3
[1]; recombinant enzyme, acetyl CoA, listed as 7(S)-salutaridinol
  acetylation at C-7 by the recombinant enzyme (substrate acceptance): acetylated

## salutaridinol 7-O-acetyltransferase (Papaver somniferum)
[3]; other: at 10 mM nudaurine
  Km: 106 µM
[3]; other: fixed concentration of salutaridinol of 10 mM, recombinant enzyme
  Km: 54 µM
[4]
  Km: 9 µM
  Vmax: 25 pmol/s

B1: recombinant enzyme: P. somniferum salutaridinol 7-O-acetyltransferase, SEQ. ID No. 14, 474 amino acids (protein, listed as Papaver somniferum)
chain: MATMYSAAVEVISKETIKPTTPTPSQLKNFNLSLLDQCFPLYYYVPIILFYPATAANSTGSSNHHDDLDLLKSSLSKTLVHFYPMAGRMIDNILVDCHDQGINFYKVKIRGKMCEFMSQPDVPLSQLLPSEVVSASVPKEALVIVQVNMFDCGGTAICSSVSHKIADAATMSTFIRSWASTTKTSRSGGSTAAVTDQKLIPSFDSASLFPPSERLTSPSGMSEIPFSSTPEDTEDDKTVSKRFVFDFAKITSVREKLQVLMHDNYKSRRQTRVEVVTSLIWKSVMKSTPAGFLPVVHHAVNLRKKMDPPLQDVSFGNLSVTVSAFLPATTTTTTNAVNKTINSTSSESQVVLHELHDFIAQMRSEIDKVKGDKGSLEKVIQNFASGHDASIKKINDVEVINFWISSWCRMGLYEIDFGWGKPIWVTVDPNIKPNKNCFFMNDTKCGEGIEVWASFLEDDMAKFELHLSEILELI
[1]; [5]
  pH optimal range: 7-9
  temperature optimum: 47 °C
